Laboratory results published in patent US20230062119A1, “USE OF BIOMARKERS IN IDENTIFYING PATIENTS THAT WILL BE RESPONSIVE TO TREATMENT WITH A PRMT5 INHIBITOR” (Merck Sharp & Dohme LLC, priority 2019, published 2023).
Structures can show the parent of a compound that is named as a salt. Where two headings read alike, the source gives them in different places.

What was measured:
[1] = target: T1, Full-length (FL)-PRMT5-MEP50 enzyme complex (Homo sapiens, UniProt O14744); assay: PRMT5-MEP50 Enzyme Methylation Assay; type: biochemical; conditions: 1.0 nM PRMT5-MEP50, 75 nM biotinylated peptide, 15 μM SAM
T1 construct: Full-length (FL)-PRMT5-MEP50 enzyme complex (recombinant proteins from baculovirus-transfected Sf21 cells: FL-PRMT5; MW=73837 kDa and FL-MEP50; MW=38614); made in house; host or cells: baculovirus-transfected Sf21 insect cells
T1 sequence (O14744 whole entry): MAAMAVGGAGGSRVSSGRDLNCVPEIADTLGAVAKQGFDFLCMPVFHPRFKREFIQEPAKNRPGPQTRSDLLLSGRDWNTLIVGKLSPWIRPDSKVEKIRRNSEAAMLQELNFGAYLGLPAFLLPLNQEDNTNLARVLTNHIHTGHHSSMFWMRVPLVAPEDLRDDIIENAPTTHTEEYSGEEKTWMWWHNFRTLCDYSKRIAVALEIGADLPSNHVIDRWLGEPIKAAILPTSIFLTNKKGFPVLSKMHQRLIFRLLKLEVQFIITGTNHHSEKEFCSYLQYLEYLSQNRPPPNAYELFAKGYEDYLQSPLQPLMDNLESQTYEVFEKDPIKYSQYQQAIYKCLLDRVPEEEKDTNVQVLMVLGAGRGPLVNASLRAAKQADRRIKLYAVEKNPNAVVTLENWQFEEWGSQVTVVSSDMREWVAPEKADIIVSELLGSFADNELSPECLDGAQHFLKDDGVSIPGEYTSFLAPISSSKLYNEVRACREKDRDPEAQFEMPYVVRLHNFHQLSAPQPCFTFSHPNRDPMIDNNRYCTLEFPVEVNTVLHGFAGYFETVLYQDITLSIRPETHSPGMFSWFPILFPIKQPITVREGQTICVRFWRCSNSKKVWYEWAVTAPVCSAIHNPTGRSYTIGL
T1 sequence (Q9BQA1 whole entry partner): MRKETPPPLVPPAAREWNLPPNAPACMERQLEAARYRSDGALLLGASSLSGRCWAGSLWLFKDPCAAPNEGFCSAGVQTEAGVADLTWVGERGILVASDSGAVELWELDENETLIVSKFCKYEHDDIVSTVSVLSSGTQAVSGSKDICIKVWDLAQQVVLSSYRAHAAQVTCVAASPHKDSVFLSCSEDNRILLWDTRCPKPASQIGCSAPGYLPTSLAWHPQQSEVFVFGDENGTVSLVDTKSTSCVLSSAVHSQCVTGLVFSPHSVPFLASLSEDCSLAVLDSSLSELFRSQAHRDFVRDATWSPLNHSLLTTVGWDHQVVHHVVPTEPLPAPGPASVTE
Procedure, shortened: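 Compound was pre-incubated 60 min at 37°C with 1.0 nM enzyme and 15 μM SAM (final) in 50 mM Bicine pH 8.0, then 75 nM biotinylated H4R3(Me1) peptide was added and reacted 150 min; twenty-point 1:2 titration from 100000 nM, 1% DMSO. Formic acid quench; SAMDI mass spectrometry measured Me1-to-Me2 conversion, EC50 by 4- or 7-parameter regression.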

[2] = test system: symmetric dimethylation of arginine (SDMA) of PRMT5 substrates in MCF-7 cells; assay: PRMT5 Cell Target Engagement (TE) Assay; type: cell-based; conditions: Homo sapiens, MCF7, 72 h, treated for 3 days, nuclear SDMA by high content imaging, top concentration 10000 nM
Source text: The PRMT5 TE assay is a biomarker assay for identifying compounds that inhibit symmetric dimethylation of arginine (SDMA) of PRMT5 substrates. The following substrates have been reported for PRMT5: Histone H2A and H4 R3, Histone H3 R2, Histone H3 R8, spliceosome Sm proteins, ribosomal protein RPS10, p53, FEN1, nucleoplasmin, nucleolin, EGFR and EBNA. The assay will focus on detecting symmetrically dimethylated nuclear proteins using high content imaging technology. Detection of the expression of symmetrically dimethylated nuclear proteins is through a mixture of primary rabbit monoclonal antibodies to SDMA (CST 13222), which in turn recognized by an Alexafluor 488 dye-conjugated anti-rabbit IgG secondary antibody. The IN Cell Analyzer 2200 or Opera-Phenix measures nuclear Alexafluor 488 fluorescent dye intensity that is directly related to the level of expression of symmetrically dimethylated nuclear proteins at the single cell level. Nuclear AF488 dye intensities are compared to the mean value for DMSO treated cells (MIN) to report percent of inhibition for each compound-treated well.
In this assay, the cell potency (EC50) of each compound was determined from a ten point (1:3 serial dilution; top compound concentration of 10000 nM) titration curve using the following outlined procedure. Each well of a BD falcon collagen coated black/clear bottom 384-well plate was seeded with 4000 MCF-7 cells in 30 μl media and allowed to attach for 5 hours. Media is ATCC-formulated Eagle's Minimum Essential Medium, Catalog No. 30-2003. The following components were added to the base medium: 0.01 mg/mL human recombinant insulin; fetal bovine serum to a final concentration of 10%. Additional 30 µl of media containing 2× compounds were added to each well. Cells were treated for 3 days in 37° C. CO2 incubator. On day 3, cells were fixed with Cytofix, permeabilized with 0.4% Triton-X-100/Cytofix, and washed with D-PBS without Ca/Mg. Cells were blocked with Licor Odessey blocking reagent for 1 hour at room temperature, followed by incubation with anti-SDMA (1:1000) antibody at 4° C. overnight. 1° antibody was removed, followed by three washings with DPBS without Ca/Mg and 0.05% Tween20. Hoechst (5 μg/mL), Cell Mask deep stain (1:2000) and Alexa488-conjugated goat anti-rabbit IgG (2 μg/mL) was added for 1 hour at room temperature. A final washing step (three washes) was performed before sealing plate for imaging on In Cell Analyzer 2200 or Opera-Phenix. Images from analyzer were uploaded to Columbus for image analysis. IC50 values were determined by 4 parameters robust fit of percent fluorescence units vs. (Log 10) compound concentrations.

[3] = one EC50: 4 parameters single site sigmoidal model, EC50 1: first value of 7 parameters biphasic model, read-out: Enzyme Methylation Assay (EC50 or EC50 1)
[4] = second EC50 of 7 parameters biphasic model, read-out: Enzyme Methylation Assay (EC50 2)

| Structure (SMILES) | EC50 [1, 3] | EC50 [2] | EC50 [1, 4] |
| --- | --- | --- | --- |
| Nc1nc2cc(C[C@@H]3CC[C@@]4(O)[C@@H]3O[C@@H](n3cc(C5CC5)c5c(N)ncnc53)[C@@H]4O)ccc2cc1F [Example 50, (2R,3R,3aS,6S,6aR)-2-(4-amino-5-cyclopropyl-7H-pyrrolo[2,3-d]pyrimidin-7-yl)-6-[(2-amino-3-fluoroquinolin-7-yl)methyl]hexahydro-3aH-cyclopenta[b]furan-3,3a-diol] | 0.3 nM | 0.7 nM | – |
| Cc1cn([C@@H]2O[C@@H]3[C@@H](Oc4ccc5cc(Cl)c(N)nc5c4)CC[C@]3(O)[C@H]2O)c2ncnc(N)c12 [Example 64, (2R,3R,3aS,6S,6aR)-6-((2-amino-3-chloroquinolin-7-yl)oxy)-2-(4-amino-5-methyl-7H-pyrrolo[2,3-d]pyrimidin-7-yl)hexahydro-3aH-cyclopenta[b]furan-3,3a-diol 2,2,2-trifluoroacetate] | 0.3 nM | 16.2 nM | – |
| Cc1cn([C@@H]2O[C@@H]3[C@@H](Oc4ccc5cc(F)c(N)nc5c4)CC[C@]3(O)[C@H]2O)c2ncnc(N)c12 [Example 65, (2R,3R,3aS,6S,6aR)-6-((2-amino-3-fluoroquinolin-7-yl)oxy)-2-(4-amino-5-methyl-7H-pyrrolo[2,3-d]pyrimidin-7-yl)hexahydro-3aH-cyclopenta[b]furan-3,3a-diol 2,2,2-trifluoroacetate] | 0.2 nM | 179 nM | 200 nM |
| CCc1cn([C@@H]2O[C@@H]3[C@@H](Oc4ccc5cc(Br)c(N)nc5c4)CC[C@]3(O)[C@H]2O)c2ncnc(N)c12 [Example 69, (2R,3R,3aS,6S,6aR)-6-((2-amino-3-bromoquinolin-7-yl)oxy)-2-(4-amino-5-ethyl-7H-pyrrolo[2,3-d]pyrimidin-7-yl)hexahydro-3aH-cyclopenta[b]furan-3,3a-diol] | 1.1 nM | 103 nM | – |
| Nc1nc2cc(O[C@H]3CC[C@@]4(O)[C@@H]3O[C@@H](n3ccc5c(C(F)F)ncnc53)[C@@H]4O)ccc2cc1Br [Example 79, (2R,3R,3aS,6S,6aR)-6-((2-amino-3-bromoquinolin-7-yl)oxy)-2-(4-(difluoromethyl)-7H-pyrrolo[2,3-d]pyrimidin-7-yl)hexahydro-3aH-cyclopenta[b]furan-3,3a-diol] | 2.9 nM | 52.5 nM | – |
| CCc1ncnc2c1ccn2[C@@H]1O[C@@H]2[C@@H](Oc3ccc4cc(Br)c(N)nc4c3)CC[C@]2(O)[C@H]1O [Example 82, 2,2,2-trifluoroacetate] | 0.7 nM | 87.2 nM | 75.9 nM |
| Nc1nc2cc(CC[C@]3(CF)C[C@@H](n4ccc5c(N)ncnc54)[C@H](O)[C@@H]3O)ccc2cc1Br [Example 102, (1S,2R,5R)-3-(2-(2-amino-3-bromoquinolin-7-yl)ethyl)-5-(4-amino-7H-pyrrolo[2,3-d]pyrimidin-7-yl)-3-(fluoromethyl)cyclopentane-1,2-diol] | 0.3 nM | 2 nM | – |
| Nc1ncc2ccn([C@@H]3O[C@@H]4[C@@H](Oc5ccc6cc(Br)c(N)nc6c5)CC[C@]4(O)[C@H]3O)c2n1 [compound 46, (2R,3R,3aS,6S,6aR)-6-((2-amino-3-bromoquinolin-7-yl)oxy)-2-(2-amino-7H-pyrrolo[2,3-d]pyrimidin-7-yl)hexahydro-3aH-cyclopenta[b]furan-3,3a-diol dihydrochloride] | 0.5 nM | 16.8 nM | – |

More lines, main results first:

| EC50 [1, 3] | Structure (SMILES) | EC50 [2] | EC50 [1, 4] |
| --- | --- | --- | --- |
| 3.5 nM | Cc1ncnc2c1ccn2[C@@H]1O[C@@H]2[C@@H](Cc3ccc4cc(Br)c(N)nc4c3)OC[C@]2(O)[C@H]1O [Example 134, (2R,3R,3aS,6R,6aR)-6-((2-amino-3-bromoquinolin-7-yl)methyl)-2-(4-methyl-7H-pyrrolo[2,3-d]pyrimidin-7-yl)tetrahydrofuro[3,4-b]furan-3,3a(4H)-diol] | – | – |
| 0.4 nM | Cc1cn([C@@H]2O[C@@H]3[C@H](Cc4ccc5cc(Br)c(N)nc5c4)OC[C@]3(O)[C@H]2O)c2ncnc(N)c12 [Example 135, (2R,3R,3aS,6S,6aR)-6-((2-amino-3-bromoquinolin-7-yl)methyl)-2-(4-amino-5-methyl-7H-pyrrolo[2,3-d]pyrimidin-7-yl)tetrahydrofuro[3,4-b]furan-3,3a(4H)-diol] | – | – |
| 0.5 nM | Nc1nc2cc(C[C@@H]3OC[C@@]4(O)[C@@H]3O[C@@H](n3ccc5c(N)ncnc53)[C@@H]4O)ccc2cc1Br [Example 136, (2R,3R,3aS,6S,6aR)-6-((2-amino-3-bromoquinolin-7-yl)methyl)-2-(4-amino-7H-pyrrolo[2,3-d]pyrimidin-7-yl)tetrahydrofuro[3,4-b]furan-3,3a(4H)-diol] | – | – |
| 0.5 nM | Nc1nc2cc(C[C@@H]3CC[C@@]4(O)[C@@H]3O[C@@H](n3ccc5c(N)ncnc53)[C@@H]4O)ccc2cc1C(F)F [Example 137, (2R,3R,3aS,6S,6aR)-6-((2-amino-3-(difluoromethyl)quinolin-7-yl)methyl)-2-(4-amino-7H-pyrrolo[2,3-d]pyrimidin-7-yl)hexahydro-2H-cyclopenta[b]furan-3,3a-diol] | – | – |
| 0.9 nM | Nc1nc2cc(C[C@@H]3CC[C@@]4(O)[C@@H]3O[C@@H](n3ccc5c(N)ncnc53)[C@@H]4O)ccc2cc1C(F)(F)F [compound 76, (2R,3R,3aS,6S,6aR)-6-((2-amino-3-(trifluoromethyl)quinolin-7-yl)methyl)-2-(4-amino-7H-pyrrolo[2,3-d]pyrimidin-7-yl)hexahydro-3aH-cyclopenta[b]furan-3,3a-diol] | – | – |
